In patent US6184370A, “Receptor-binding determinant from leukaemia inhibitory factor” (Amrad Corporation Limited, priority 1994, dated 2001):

Columns and labels:
[1] = tested on: mLBP (soluble mLIF-R α-chain); test: Competitive inhibition of [125I]hLIF binding to mLBP (hLIF-like activity score); parameters: species or system mouse; conditions: logarithmic scale, hLIF = 100%, mLIF = 0%; mean±SEM
Excerpt: Reference is made herein to the subject molecule having at least about 35% hLIF-like activity. More preferably, the molecule has at least about 50% hLIF-like activity and even more preferably at least about 70% hLIF-like activity. hLIF-like activity is defined in terms of the ability for a molecule to compete for ^125 I-hLIF binding to mLBP based on the equation: [formula]
wherein xm is the dose of unlabelled mLIF; xh is the dose of unlabelled hLIF; xc is the dose of the molecule (e.g. protein, polypeptide or peptide) required to give 50% inhibition of ^125 I-hLIF binding to mLBP.
Normal mouse serum was used as a source of mLBP. […] Bound and free radioactivity were separated by vacuum filtration of the supernatant and the ConA-Sepharose pellet was washed once with 200 μl cold PBS. Assay plates containing the cell pellet were then exposed to a phosphor screen (Molecular Dynamics, Calif., U.S.A.) for 16-24 hours and the results quantified using Imagequant version 3.0 software (Molecular Dynamics). […]

[2] = tested on: mLBP (soluble mLIF-R α-chain); test: Competitive inhibition of [125I]mLIF binding to mLBP; parameters: species or system mouse; conditions: in words
Method: Normal mouse serum was used as a source of mLBP. For competitive binding experiments, 50 μl aliquots of unlabelled LIF or a mouse-human LIF hybrid were added to 96-well filtration assay plates containing a 0.65 micron Durapore membrane (Millipore, Mass., U.S.A.) with 20 μl aliquots of a 1/10 to 1/20 dilution of normal mouse serum, 10 μl radiolabelled ligand and 25 μl Concanavalin-A Sepharose 4B (ConA-Sepharose, Pharmacia, Uppsala) (diluted 1:4 in 100 mM sodium acetate pH6.0 containing 1 mM MnCl2, 1 mM MgCl2 and 1 mM CaCl2; this and all subsequent buffers contained 0.02% w/v sodium azide and 0.02% v/v Tween 20) and incubated at room temperature overnight with agitation. Bound and free radioactivity were separated by vacuum filtration of the supernatant and the ConA-Sepharose pellet was washed once with 200 μl cold PBS. Assay plates containing the cell pellet were then exposed to a phosphor screen (Molecular Dynamics, Calif., U.S.A.) for 16-24 hours and the results quantified using Imagequant version 3.0 software (Molecular Dynamics).
The structural integrity of all m-hLIF chimeras was also verified by evaluating their ability to bind correctly to the mLIF-R α-chain.

[3] = tested on: murine M1 leukaemic colonies; test: M1 differentiation assay (specific biological activity); format: cell-based
Method: The functional activity of the m-hLIF hybrids was assayed by their ability to induce differentiation in murine M1 leukaemic colonies. M1 differentiation assays were performed as described (Metcalf et al, 1988). The specific activity of each hybrid was expressed as the units of M1 differentiation-inducing activity per milligram of protein.
The protein concentration of each purified sample was determined by amino acid analysis, and the amount of biologically active protein in each sample was estimated by its ability to induce differentiation in mouse M1 myeloid leukaemic colonies. An internal standard of mLIF (10^4 U/ml) was used to normalise all M1 cell bioassays (50 U/ml of LIF is defined as the concentration of LIF required for half maximal stimulation).

M1 cells [4] = test: Serum dose inhibition of M1 colony differentiation by normal mouse serum (mLBP); format: cell-based, murine; conditions: up to 200 U/ml hLIF
Method: For serum dose inhibition assays, the specific activity of each LIF preparation was determined by titration in cultures of M1 cells. Aliquots of normal mouse serum (containing approximately 5 μg/ml mLBP) were then added in serial 2-fold dilutions to cultures of M1 cells that also contained a just maximal concentration (200 U) of mLIF (SEQ. ID. NO:1), hLIF (SEQ. ID. NO:2) or m-hLIF hybrid. Assays including mLIF and hLIF gave identical results when either crude mouse serum or a highly purified preparation of mLBP was used. Hybrids were assessed for mLIF or hLIF character from the dilution of serum required to block 50% of their M1 cell differentiation-inducing activity.
A 1:4 to 1:8 dilution of normal mouse serum (equivalent to ~0.5-1 μg/ml mLBP) is required to block 50% of the M1 differentiation-inducingactivity of up to 200 U/ml mLIF, whereas, due to the higher affinity of hLIF for mLBP, a 1:8192 dilution of serum (~0.6 ng/ml mLBP) is sufficient to block 50% of the M1 activity of up to 200 U/ml hLIF. This ability of mLBP to inhibit the differentiation-inducing activity of LIF in a species-specific manner was utilized as a second assay that distinguished hLIF from mLIF. […]

M1 cells [5] = conditions: background statement; cited from earlier work

hLIF-like activity (percentage human score) calculated from ID50 for inhibition of [125I]hLIF binding to mLBP [1]: 100%
ability to compete for [125I]mLIF binding to mLBP [2]: approximately equal ability
Substance: hLIF: human leukaemia inhibitory factor, H1-180 (SEQ. ID. NO:2), recombinant from E. coli
biological activity in a mouse cell bioassay, in words [3]: nearly equal biological activities
specific biological activity (units of LIF activity per milligram of protein) ([3]; mouse M1 cells, 50 U/ml = half maximal stimulation): 1-3×10^8 U/mg
mLBP concentration equivalent to serum dilution blocking 50% of M1 activity (M1 cells [4]): ~ 0.6 ng/ml
mLBP more potent inhibitor of hLIF than mLIF (inhibition of biological responses to LIF) (M1 cells [5]): approximately 1000 fold
